Assay results from patent publication US12269831B2, “Modulators of cystic fibrosis transmembrane conductance regulator” (Vertex Pharmaceuticals Incorporated, priority 2020, dated 2025).

Molecular target: T1, CFTR (F508del/MF-HBE cells) (Homo sapiens, UniProt P13569, DEL508-508)
T1 construct: human bronchial epithelial (HBE) cells derived from CF subjects heterozygous for F508del and a minimal function CFTR mutation (F508del/MF-HBE); endogenous in cells; host or cells: primary human bronchial epithelial (HBE) cells from CF subjects, genotype F508del/minimal function
Assay: Ussing chamber assay of CFTR-mediated short-circuit currents (potentiator identification)
Format: cell-based
Conditions: CFTR-mediated Isc, 18-24 h incubation at 37° C. with 10 μM (14S)-8-[3-(2-{dispiro[2.0.2.1]heptan-7-yl}ethoxy)-1H-pyrazol-1-yl]-... corrector, 20% human serum
Description: Ussing Chamber Assay of CFTR-Mediated Short-Circuit Currents
Ussing chamber experiments were performed using human bronchial epithelial (HBE) cells derived from CF subjects heterozygous for F508del and a minimal function CFTR mutation (F508del/MF-HBE) and cultured as previously described (Neuberger T, Burton B, Clark H, Van Goor F Methods Mol Biol 2011:741:39-54). After four days the apical media was removed, and the cells were grown at an air liquid interface for >14 days prior to use.
To isolate the CFTR-mediated short-circuit (Isc) current, F508del/MF-HBE grown on Costar® Snapwell™ cell culture inserts were mounted in an Ussing chamber and the transepithelial ISC was measured under voltage-clamp recording conditions (Vhold=0 mV) at 37° C. The basolateral solution contained (in mM) 145 NaCl, 0.83 K2HPO4, 3.3 KH2PO4, 1.2 MgCl2, 1.2 CaCl2, 10 Glucose, 10 HEPES (pH adjusted to 7.4 with NaOH) and the apical solution contained (in mM) 145 NaGluconate, 1.2 MgCl2, 1.2 CaCl2, 10 glucose, 10 HEPES (pH adjusted to 7.4 with NaOH) and 30 μM amiloride to block the epithelial sodium channel. Forskolin (20 μM) was added to the apical surface to activate CFTR, followed by apical addition of a CFTR inhibitor cocktail consisting of BPO, GlyH-101 and CFTR inhibitor 172 (each at 20 μM final assay concentration) to specifically isolate CFTR currents. The CFTR-mediated Isc (μA/cm^2) for each condition was determined from the peak forskolin response to the steady-state current following inhibition.
Identification of Potentiator Compounds
The activity of the CFTR potentiator compounds on the CFTR-mediated Isc was determined in Ussing chamber studies as described above. The F508del/MF-HBE cell cultures were incubated with the potentiator compounds at a range of concentrations in combination with 10 μM (14S)-8-[3-(2-{dispiro[2.0.2.1]heptan-7-yl}ethoxy)-1H-pyrazol-1-yl]-12,12-dimethyl-2λ^6-thia-3,9,11,18,23-pentaazatetracyclo[17.3.1.111,14.05,10]tetracosa-1(22),5,7,9,19(23),20-hexaene-2,2,4-trione for 18-24 hours at 37° C. and in the presence of 20% human serum. The concentration of potentiator compounds and (14S)-8-[3-(2-{dispiro[2.0.2.1]heptan-7-yl}ethoxy)-1H-pyrazol-1-yl]-12,12-dimethyl-2λ^6-thia-3,9,11,18,23-pentaazatetracyclo[17.3.1.111,14.05,10]tetracosa-1(22),5,7,9,19(23),20-hexaene-2,2,4-trione used during the 18-24 hours incubations was kept constant throughout the Ussing chamber measurement of the CFTR-mediated Isc to ensure compounds were present throughout the entire experiment. The efficacy and potency of the putative F508del potentiators was compared to that of the known Vertex potentiator, ivacaftor (N-[2,4-bis(1,1-dimethylethyl)-5-hydroxyphenyl]-1,4-dihydro-4-oxoquinoline-3-carboxamide).

T1 sequence (P13569 with tags, fused parts or gaps DEL508-508): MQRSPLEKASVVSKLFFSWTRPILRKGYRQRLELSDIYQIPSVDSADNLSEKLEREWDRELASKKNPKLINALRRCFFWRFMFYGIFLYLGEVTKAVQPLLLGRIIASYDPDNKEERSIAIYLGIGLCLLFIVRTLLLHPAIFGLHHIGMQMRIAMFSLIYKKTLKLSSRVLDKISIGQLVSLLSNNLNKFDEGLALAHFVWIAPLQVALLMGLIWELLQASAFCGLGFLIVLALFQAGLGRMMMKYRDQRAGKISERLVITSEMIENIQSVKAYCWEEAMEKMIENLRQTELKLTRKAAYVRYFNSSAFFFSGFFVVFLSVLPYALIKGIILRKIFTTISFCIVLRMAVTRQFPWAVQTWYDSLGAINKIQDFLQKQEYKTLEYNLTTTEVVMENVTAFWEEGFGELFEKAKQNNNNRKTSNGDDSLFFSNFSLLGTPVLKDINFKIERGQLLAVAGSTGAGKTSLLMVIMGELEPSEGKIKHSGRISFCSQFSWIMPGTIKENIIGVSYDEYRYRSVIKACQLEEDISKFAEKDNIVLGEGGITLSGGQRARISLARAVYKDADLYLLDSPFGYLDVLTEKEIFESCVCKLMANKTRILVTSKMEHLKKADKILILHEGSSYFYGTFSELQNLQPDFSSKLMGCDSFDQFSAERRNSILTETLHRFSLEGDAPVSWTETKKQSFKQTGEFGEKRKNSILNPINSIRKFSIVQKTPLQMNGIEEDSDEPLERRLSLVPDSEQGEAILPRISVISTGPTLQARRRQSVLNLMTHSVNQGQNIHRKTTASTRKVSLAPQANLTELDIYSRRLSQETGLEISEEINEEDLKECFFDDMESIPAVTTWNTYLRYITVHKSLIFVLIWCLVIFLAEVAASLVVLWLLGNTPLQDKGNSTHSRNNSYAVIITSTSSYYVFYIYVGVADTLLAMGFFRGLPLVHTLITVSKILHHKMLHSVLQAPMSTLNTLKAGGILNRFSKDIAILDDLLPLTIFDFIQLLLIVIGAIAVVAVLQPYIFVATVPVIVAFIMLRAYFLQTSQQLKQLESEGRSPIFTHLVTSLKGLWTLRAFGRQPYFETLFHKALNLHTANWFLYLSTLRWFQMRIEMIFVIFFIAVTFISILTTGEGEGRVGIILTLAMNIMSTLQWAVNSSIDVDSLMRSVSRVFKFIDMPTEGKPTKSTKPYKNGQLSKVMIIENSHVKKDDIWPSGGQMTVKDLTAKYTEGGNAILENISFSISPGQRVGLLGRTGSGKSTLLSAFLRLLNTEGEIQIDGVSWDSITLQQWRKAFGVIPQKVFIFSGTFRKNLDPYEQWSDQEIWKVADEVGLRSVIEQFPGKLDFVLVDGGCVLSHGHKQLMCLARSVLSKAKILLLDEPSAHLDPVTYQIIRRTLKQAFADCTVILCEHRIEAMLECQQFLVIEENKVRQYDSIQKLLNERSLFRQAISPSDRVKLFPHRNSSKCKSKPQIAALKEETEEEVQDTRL

SMILES | EC50 [nM]
OC1(C(F)(F)F)CCCCCCOc2nc(ccc2C(F)(F)F)C2=NN=C1O2 (racemic) [Compound 1, 6,15-bis(trifluoromethyl)-13,19-dioxa-3,4,18-triazatricyclo[12.3.1.12,5]nonadeca-1(17),2,4,14(18),15-pentaen-6-ol] | > 1000
OC1(C(F)(F)F)CCCCCCOc2nc(ccc2C(F)(F)F)C2=NN=C1O2 (single isomer, unassigned) [Compound 3, 6,15-bis(trifluoromethyl)-13,19-dioxa-3,4,18-triazatricyclo[12.3.1.12,5]nonadeca-1(17),2,4,14(18),15-pentaen-6-ol] | > 1000
Nc1cc(C(F)(F)F)c2nc1-c1nnc(o1)[C@@](O)(C(F)(F)F)CCCCC[S+]2[O-] (single isomer, unassigned) [Compound 23] | > 1000
Nc1cc(C(F)(F)F)c2nc1-c1nnc(o1)[C@@](O)(C(F)(F)F)CCCCC[S+]2[O-] (single isomer, unassigned) [Compound 24] | > 1000
Nc1cc(C(F)(F)F)c2nc1-c1nnc(o1)C(O)(C(F)(F)F)CCCCc1cccc(c1)O2 (single isomer, unassigned) [Compound 28, 20-amino-6,18-bis(trifluoromethyl)-16,23-dioxa-3,4,21-triazatetracyclo[15.3.1.12,5.111,15]tricosa-1(21),2,4,11(22),12,14,17,19-octaen-6-ol] | > 1000
Nc1cc(C(F)(F)F)c2nc1-c1nnc(o1)C(O)(C(F)(F)F)CCCCc1cc(F)cc(c1)O2 (single isomer, unassigned) [Compound 32, 20-amino-13-fluoro-6,18-bis(trifluoromethyl)-16,23-dioxa-3,4,21-triazatetracyclo[15.3.1.12,5.111,15]tricosa-1(21),2,4,11(22),12,14,17,19-octaen-6-ol] | > 1000
C[C@@H]1CCC(O)CC[C@](O)(C(F)(F)F)C2=NN=C(O2)c2nc(c(C(F)(F)F)cc2N)O1 (single isomer, unassigned) [Compound 45] | < 500
C[C@@H]1CC(O)CCC[C@](O)(C(F)(F)F)C2=NN=C(O2)c2nc(c(C(F)(F)F)cc2N)O1 (single isomer, unassigned) [Compound 46] | < 500
Nc1cc(C(F)(F)F)c2nc1-c1nnc(o1)[C@@](O)(C(F)(F)F)CCCCCC(CC1CC1)O2 (single isomer, unassigned) [Compound 47] | < 500
Nc1cc(C(F)(F)F)c2nc1-c1nnc(o1)[C@@](O)(C(F)(F)F)CCCCCC(CC1CC1)O2 (single isomer, unassigned) [Compound 48] | < 500
Nc1cc(C(F)(F)F)c2nc1-c1nnc(o1)[C@@](O)(C(F)(F)F)CCCCCC(Cc1ccc(F)cc1)O2 (single isomer, unassigned) [Compound 49] | < 500
Nc1cc(C(F)(F)F)c2nc1-c1nnc(o1)[C@@](O)(C(F)(F)F)CCCCCC(Cc1ccc(F)cc1)O2 (single isomer, unassigned) [Compound 50] | < 500
CC(C)(C)c1cccc(CC2CCCCC[C@](O)(C(F)(F)F)C3=NN=C(O3)c3nc(c(C(F)(F)F)cc3N)O2)c1 (single isomer, unassigned) [Compound 51] | < 500
CC(C)(C)c1cccc(CC2CCCCC[C@](O)(C(F)(F)F)C3=NN=C(O3)c3nc(c(C(F)(F)F)cc3N)O2)c1 (single isomer, unassigned) [Compound 52] | < 500
C[C@@H]1CCCC(O)C[C@](O)(C(F)(F)F)C2=NN=C(O2)c2nc(c(C(F)(F)F)cc2N)O1 (single isomer, unassigned) [Compound 53] | < 500
C[C@@H]1CCCCC(O)C(O)(C(F)(F)F)C2=NN=C(O2)c2nc(c(C(F)(F)F)cc2N)O1 (single isomer, unassigned) [Compound 56] | > 1000
C[C@@H]1CCCCC(O)C(O)(C(F)(F)F)C2=NN=C(O2)c2nc(c(C(F)(F)F)cc2N)O1 (single isomer, unassigned) [Compound 57] | < 500
C[C@@H]1CCCCC(O)C(O)(C(F)(F)F)C2=NN=C(O2)c2nc(c(C(F)(F)F)cc2N)O1 (single isomer, unassigned) [Compound 62] | < 500
C[C@@H]1CC2CC2CC[C@](O)(C(F)(F)F)C2=NN=C(O2)c2nc(c(C(F)(F)F)cc2N)O1 (single isomer, unassigned) [Compound 63] | < 500

More lines, now with the values ahead:

EC50 [nM] | SMILES
< 500 | Nc1cc(C(F)(F)F)c2nc1-c1nnc(o1)C(O)(C(F)(F)F)CCCCCCO2 (racemic) [Compound 4, 17-Amino-6,15-bis(trifluoromethyl)-13,19-dioxa-3,4,18-triazatricyclo[12.3.1.12,5]nonadeca-1(18),2,4,14,16-pentaen-6-ol]
< 500 | Nc1cc(C(F)(F)F)c2nc1-c1nnc(o1)[C@@](O)(C(F)(F)F)CCCCCCS2(=O)=O (single isomer, unassigned) [Compound 9]
< 500 | Nc1cc(C(F)(F)F)c2nc1-c1nnc(o1)C(O)(C(F)(F)F)CCCCCS2(=O)=O (single isomer, unassigned) [Compound 15, 16-amino-12,12-dioxo-6,14-bis(trifluoromethyl)-18-oxa-12λ^6-thia-3,4,17-triazatricyclo[11.3.1.12,5]octadeca-1(17),2,4,13,15-pentaen-6-ol]
< 500 | Nc1cc(C(F)(F)F)c2nc1-c1nnc(o1)C(O)(C(F)(F)F)CCCCc1cccc(c1)O2 (single isomer, unassigned) [Compound 27, 20-amino-6,18-bis(trifluoromethyl)-16,23-dioxa-3,4,21-triazatetracyclo[15.3.1.12,5.111,15]tricosa-1(21),2,4,11(22),12,14,17,19-octaen-6-ol]
< 500 | CC1CCC(O)(C(F)(F)F)C2=NN=C(O2)c2nc(c(C(F)(F)F)cc2N)Oc2cccc1c2 (single isomer, unassigned) [Compound 30, 19-amino-9-methyl-6,17-bis(trifluoromethyl)-15,22-dioxa-3,4,20-triazatetracyclo[14.3.1.12,5.110,14]docosa-1(20),2,4,10(21),11,13,16,18-octaen-6-ol]
< 500 | Nc1cc(C(F)(F)F)c2nc1-c1nnc(o1)C(O)(C(F)(F)F)CCCCc1cc(F)cc(c1)O2 (single isomer, unassigned) [Compound 31, 20-amino-13-fluoro-6,18-bis(trifluoromethyl)-16,23-dioxa-3,4,21-triazatetracyclo[15.3.1.12,5.111,15]tricosa-1(21),2,4,11(22),12,14,17,19-octaen-6-ol]
< 500 | CC1CCC(O)(C(F)(F)F)C2=NN=C(O2)c2nc(c(C(F)(F)F)cc2N)Oc2cc(F)cc1c2 (single isomer, unassigned) [Compound 33, 19-amino-12-fluoro-9-methyl-6,17-bis(trifluoromethyl)-15,22-dioxa-3,4,20-triazatetracyclo[14.3.1.12,5.110,14]docosa-1(20),2,4,10(21),11,13,16,18-octaen-6-ol]
< 500 | CC(C)C1CCCCC[C@](O)(C(F)(F)F)C2=NN=C(O2)c2nc(c(C(F)(F)F)cc2N)O1 (single isomer, unassigned) [Compound 34]
< 500 | CC(C)C1CCCCC[C@](O)(C(F)(F)F)C2=NN=C(O2)c2nc(c(C(F)(F)F)cc2N)O1 (single isomer, unassigned) [Compound 35]
< 500 | C[C@H]1Oc2nc(c(N)cc2C(F)(F)F)C2=NN=C(O2)[C@@](O)(C(F)(F)F)CCCCC1O (single isomer, unassigned) [Compound 40]
< 500 | C[C@H]1Oc2nc(c(N)cc2C(F)(F)F)C2=NN=C(O2)[C@@](O)(C(F)(F)F)CCCCC1O (single isomer, unassigned) [Compound 41]
< 500 | C[C@@H]1CCC(O)CC[C@](O)(C(F)(F)F)C2=NN=C(O2)c2nc(c(C(F)(F)F)cc2N)O1 (single isomer, unassigned) [Compound 42]
< 500 | C[C@@H]1CC(O)CCC[C@](O)(C(F)(F)F)C2=NN=C(O2)c2nc(c(C(F)(F)F)cc2N)O1 (single isomer, unassigned) [Compound 43]
